Laboratory results as given in ChEMBL document CHEMBL1122027, “N-Aralkyl substitution of 2-amino-5,6- and -6,7-dihydroxy-1,2,3,4-tetrahydronaphthalenes. 2. Derivatives of a hypotensive-positive inotropic agent” (1982).

Experiments:
[1] = species: Canis familiaris; experiment: Inotropic selectivity was assessed by normalizing changes in heart rate to the 50% levels in mongrel dogs; assay type: functional, Canis lupus familiaris
[2] = species: Canis familiaris; experiment: Cardioselectivity was estimated by normalizing changes in diastolic blood pressure to the 100% levels of contractile force in mongrel dogs; assay type: functional, Canis lupus familiaris, Artery
[3] = tested on: Canis familiaris; experiment: In vivo dose causing a 50% increase in right ventricular contractile force in mongrel dogs; assay type: functional, Canis lupus familiaris, Heart right ventricle
[4] = species: Canis familiaris; experiment: Inotropic selectivity was assessed by normalizing changes in heart rate to the 100% levels in mongrel dogs; assay type: functional, Canis lupus familiaris
[5] = species: Canis familiaris; experiment: Cardioselectivity was estimated by normalizing changes in diastolic blood pressure to the 50% levels of contractile force in mongrel dogs; assay type: functional, Canis lupus familiaris, Artery
[6] = tested on: Canis familiaris; experiment: In vivo dose causing a 100% increase in right ventricular contractile force in mongrel dogs; assay type: functional, Canis lupus familiaris, Heart right ventricle

Compound | Delta HR [1] | Delta blood pressure [2] | Inotropic potency [3] | Delta HR [4] | Delta blood pressure [5] | Inotropic potency [6]
CC(Cc1ccc(O)c(O)c1)NC1CCc2cc(O)c(O)cc2C1 (centres undefined) | -5 beats min-1 | -30 mmHg | 11.4 nM/kg | 4 beats min-1 | -39 mmHg | 27 nM/kg
CC(Cc1ccc(O)c(O)c1)NC1CCc2cc(O)ccc2C1 (centres undefined) | 30 beats min-1 | -66 mmHg | 25 nM/kg | 49 beats min-1 | -46 mmHg | 85 nM/kg
Oc1cc2c(cc1O)CC(NC1CCc3c(ccc(O)c3O)C1)CC2 (centres undefined) | 24 beats min-1 | -55 mmHg | 210 nM/kg | 31 beats min-1 | -61 mmHg | 590 nM/kg
CC(Cc1ccc(O)cc1)NC1CCc2cc(O)c(O)cc2C1 (centres undefined) | 23 beats min-1 |  | 680 nM/kg |  | -25 mmHg | 
CC(Cc1ccc(O)c(O)c1)NCCc1ccc(O)c(O)c1 (centres undefined) | 26 beats min-1 | -34 mmHg | 4 nM/kg | 39 beats min-1 | -19 mmHg | 13 nM/kg
COc1ccc(CC(C)NCCc2ccc(O)c(O)c2)cc1OC (centres undefined) | 10 beats min-1 | -31 mmHg | 490 nM/kg | 17 beats min-1 | -24 mmHg | 1100 nM/kg
Oc1cc2c(cc1O)CC(NC1CCc3cc(O)c(O)cc3C1)CC2 (centres undefined) | 31 beats min-1 | 84 mmHg | 961 nM/kg | 62 beats min-1 | -78 mmHg | 2650 nM/kg
